Data on 44 compounds can be found in patent US20050096327A1, “Novel norepinephrine reuptake inhibitors for the treatment of central nervous system disorders” (priority 2003, published 2005).

Counter-ions that a name gives are not always drawn.

In general, Ki refers to a measure of affinity in units of concentration, obtained from inhibition or displacement.

For this experiment, the target named is T1, human norepinephrine transporter (Homo sapiens, UniProt P23975).
T1 construct: host or cells: HEK-293
T1 sequence (P23975 whole entry): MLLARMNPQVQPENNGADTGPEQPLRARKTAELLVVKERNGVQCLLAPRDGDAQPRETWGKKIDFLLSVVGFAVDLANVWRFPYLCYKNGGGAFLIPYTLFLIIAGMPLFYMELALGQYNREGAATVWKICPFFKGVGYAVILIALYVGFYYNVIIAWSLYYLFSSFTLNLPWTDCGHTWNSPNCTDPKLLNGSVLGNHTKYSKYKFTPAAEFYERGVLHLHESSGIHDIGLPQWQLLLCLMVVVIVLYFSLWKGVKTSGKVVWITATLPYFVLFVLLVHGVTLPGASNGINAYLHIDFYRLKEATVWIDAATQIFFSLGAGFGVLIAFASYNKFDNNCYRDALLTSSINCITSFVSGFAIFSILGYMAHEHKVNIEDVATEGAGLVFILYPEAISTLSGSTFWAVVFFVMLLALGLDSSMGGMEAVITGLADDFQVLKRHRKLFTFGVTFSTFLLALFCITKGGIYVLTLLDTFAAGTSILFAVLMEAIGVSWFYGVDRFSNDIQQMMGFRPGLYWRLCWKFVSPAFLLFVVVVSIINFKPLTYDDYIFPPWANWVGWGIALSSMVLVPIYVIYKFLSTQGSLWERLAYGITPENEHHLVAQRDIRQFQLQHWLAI
As to the kind of experiment: hNET receptor binding ([125I]-RTI-55, membranes of transfected HEK-293 cells). As to conditions: 50 pM [125I]-RTI-55, 90 min room temperature; IC50 converted by Cheng-Prusoff. As to the method: Cell pastes of HEK-293 cells transfected with the human norepinephrine transporter were supplied by the Pfizer Ann Arbor Protein Expression and Production group. Pellets were resuspended in 400 to 700 ml of Krebs-HEPES assay buffer (25 mM HEPES, 122 mM NaCl, 3 mM KCl, 1.2 mM MgSO4, 1.3 mM CaCl2, and 11 mM glucose, pH 7.4) with a Polytron homogenizer at setting 7 for 30 sec. Aliquots of membranes (5 mg/ml protein) were stored in liquid nitrogen until used.
The binding assay was set up in Beckman deep-well polypropylene plates with a total volume of 250 μl containing: drug (10^−5M to 10^−12M), cell membranes, and 50 pM [^125I]-RTI-55 (Perkin Elmer, NEX-272; specific activity 2200 Ci/mmol). The reaction was incubated by gentle agitation for 90 min at room temperature and was terminated by filtration through Whatman GF/C filter plates using a Brandel 96-well plate harvester. Scintillation fluid (100 μl) was added to each well, and bound [^125I]-RTI-55 was determined using a Wallac Trilux Beta Plate Counter. Test compounds were run in duplicate, and specific binding was defined as the difference between binding in the presence and absence of 10 μM desipramine.
Excel and GraphPad Prism software were used for data calculation and analysis. IC50 values were converted to Ki values using the Cheng-Prusoff equation. The Ki values for the hNET are reported below in Table 1.
Compound “2-Piperazin-1-yl-4-s-tolyl-quinazoline hydrochloride [Example 53]” gave a Ki of 10.5 nM.
Then “4-(2,4-Difluoro-phenyl)-2-piperazin-1-yl)-quinazoline hydrochloride [Example 38]”, with 2 nM.
Next, `c1ccc(-c2nc(N3CCNCC3)nc3ccccc23)cc1` [Example 3, 4-Phenyl-2-piperazin-1-yl-quinazoline]: 4.8 nM; `c1ccc(-c2nc(N3CC4CC3CN4)nc3ccccc23)cc1` (centres unmarked) [Example 10, 2-(2,5-Diaza-bicyclo[2.2.1]hept-2-yl)-4-phenyl-quinazoline hydrochloride]: 3.4 nM; `NCCNc1nc(-c2ccccc2)c2ccccc2n1` [Example 13, N^1-(4-Phenyl-quinazolin-2-yl)-ethane-1,2-diamine hydrochloride]: 89.2 nM.
Next, `c1ccc(-c2nc(N[C@H]3CCNC3)nc3ccccc23)cc1` [Example 17, (S)-(−)-3-(4-Phenyl-quinazolin-2-yl)-aminopyrrolidine hydrochloride]: 45 nM.
For the compound `CN1CCN(c2nc(-c3ccccc3Cl)c3ccccc3n2)CC1` [Example 19, 4-(2-Chloro-phenyl)-2-(4-methyl-piperazin-1-yl)-quinazoline], the Ki worked out at 26.7 nM.
Take `Clc1ccccc1-c1nc(N2CCNCC2)nc2ccccc12` [Example 22, 4-(2-Chloro-phenyl)-2-piperazin-1-yl-quinazoline hydrochloride]: the Ki was 4.8 nM.
Turning to `COc1ccccc1-c1nc(N2CCNCC2)nc2ccccc12` [Example 23, 4-(2-Methoxy-phenyl)-2-piperazin-1-yl-quinazoline hydrochloride], the Ki stood at 29.5 nM.
`c1ccc(Cc2nc(N3CCNCC3)nc3ccccc23)cc1` [Example 28, 4-Benzyl-2-piperazin-1-yl-quinazoline hydrochloride]: the Ki stood at 93.4 nM.
With `Fc1cccc(F)c1-c1nc(N2CCNCC2)nc2ccccc12` [Example 29, 4-(2,6-Difluoro-phenyl)-2-piperazin-4-yl-quinazoline hydrochloride], affinity was put at a Ki of 4.8 nM.
Then `C[C@@H]1CN(c2nc(-c3ccccc3)c3ccccc3n2)CCN1` [Example 31, (R)-(+)-2-(3-Methyl-piperazin-1-yl)-4-phenyl-quinazoline], with 34.5 nM.
Next, `Fc1ccccc1-c1nc(N2CC3CCCC(C2)N3)nc2ccccc12` [Example 33, 2-(3,9-Diaza-bicyclo[3.3.1]non-3-yl)-4-(2-fluoro-phenyl-quinazoline hydrochloride]: 19 nM; `CN[C@H]1CCN(c2nc(-c3ccccc3F)c3ccccc3n2)C1` [Example 35, (S)-(+)-1-[4-(2-Fluoro-phenyl)-quinazolin-2-yl]-pyrrolidin-3-yl}-methyl-amine hydrochloride]: 19.3 nM; `Fc1ccccc1-c1nc(C2CCNCC2)nc2ccccc12` [Example 41, 4-(2-Fluoro-phenyl)-2-(piperidin-4-yl)-quinazoline hydrochloride]: 4 nM.
Next, `c1ccc(-c2nc(C3CCNCC3)nc3ccccc23)cc1` [Example 42, 4-Phenyl-2-piperidin-4-yl-quinazoline hydrochloride]: 13.3 nM; `CN1CCC(c2nc(-c3ccccc3F)c3ccccc3n2)CC1` [Example 43, 4-(2-Fluoro-phenyl)-2-(1-methyl-piperidin-4-yl)-quinazoline]: 29.2 nM; `CN1CCC(c2nc(-c3ccccc3Cl)c3ccccc3n2)CC1` [Example 44, 4-(2-Chloro-phenyl)-2-(1-methyl-piperidin-4-yl)-quinazoline]: 62.5 nM.
With `Clc1ccccc1-c1nc(C2CCNCC2)nc2ccccc12` [Example 45, 4-(2-Chloro-phenyl)-2-piperidin-4-yl-quinazoline hydrochloride], the affinity, expressed as Ki, was 8.7 nM.
Next, `COc1ccccc1-c1nc(C2CCNCC2)nc2ccccc12` [Example 46, 4-(2-Methoxy-phenyl)-2-piperidin-4-yl-quinazoline hydrochloride]: 60.3 nM; `c1ccc(-c2nc(N3C4CCCC3CNC4)nc3ccccc23)cc1` [Example 55, 2-(3,9-Diaza-bicyclo[3.3.1]non-9-yl)-4-phenyl-quinazoline]: 11 nM; `Fc1cccc(F)c1-c1nc(N[C@H]2CCNC2)nc2ccccc12` [Example 58]: 8 nM.
Then `Fc1cccc(-c2nc(N3CCNCC3)nc3ccccc23)c1` [Example 60, 4-(3-Fluoro-phenyl)-2-piperazin-1-yl-quinazoline], with 4.1 nM; and `Fc1ccc(-c2nc(N3CCNCC3)nc3ccccc23)c(Cl)c1` [Example 61, 4-(2-Chloro-4-fluoro-phenyl)-2-piperazin-1-yl-quinazoline], with 6.9 nM.
Then `Clc1ccc(-c2nc(N3CCNCC3)nc3ccccc23)cc1` [Example 62, 4-(4-Chloro-phenyl)-2-piperazin-1-yl-quinazoline], with 17.3 nM.
`Clc1cccc(Cl)c1-c1nc(N2CCNCC2)nc2ccccc12` [Example 63, 4-(2,6-Dichloro-phenyl)-2-piperazin-1-yl-quinazoline] came in with a Ki of 17.6 nM.
Next, `Fc1ccc2nc(C3CCNCC3)nc(-c3ccccc3F)c2c1` [Example 64, 6-Fluoro-4-(2-fluoro-phenyl)-2-piperidin-4-yl-quinazoline]: 17.7 nM.
Then `Fc1ccc2c(-c3ccccc3F)nc(C3CCNCC3)nc2c1` [Example 65, 7-Fluoro-4-(2-fluoro-phenyl)-2-piperidin-4-yl-quinazoline], with 3.3 nM; and `Fc1cccc(-c2nc(C3CCNCC3)nc3ccccc23)c1` [Example 66, 4-(3-Fluoro-phenyl)-2-piperidin-4-yl-quinazoline], with 5.5 nM; and `CN1CCC(c2nc(-c3cccc(F)c3)c3ccccc3n2)CC1` [Example 67, 4-(3-Fluoro-phenyl)-2-(1-methyl-piperidin-4-yl)-quinazoline], with 53.5 nM.
`Fc1ccc(-c2nc(C3CCNCC3)nc3ccccc23)cc1` [Example 68, 4-(4-Fluoro-phenyl)-2-piperidin-4-yl-quinazoline] had a Ki of 40.6 nM.
Then `CN1CCC(c2nc(-c3c(F)cccc3F)c3ccccc3n2)CC1` [Example 69, 4-(2,6-Difluoro-phenyl)-2-(1-methyl-piperidin-4-yl)-quinazoline], with 37.9 nM.
With `Fc1cccc(F)c1-c1nc(C2CCNCC2)nc2ccccc12` [Example 70, 4-(2,6-Difluoro-phenyl)-2-piperidin-4-yl-quinazoline], the Ki was found to be 2.9 nM.
Next, `Fc1cccc(-c2nc(C3CCNCC3)nc3ccccc23)c1F` [Example 71, 4-(2,3-Difluoro-phenyl)-2-piperidin-4-yl-quinazoline]: 3 nM.
Then `Fc1ccc(-c2nc(C3CCNCC3)nc3ccccc23)c(F)c1` [Example 72, 4-(2,4-Difluoro-phenyl)-2-piperidin-4-yl-quinazoline], with 17.7 nM.
Turning to `Fc1ccc(F)c(-c2nc(C3CCNCC3)nc3ccccc23)c1F` [Example 73, 2-Piperidin-4-yl-4-(2,3,6-trifluoro-phenyl)-quinazoline], the affinity, expressed as Ki, was 15.9 nM.
Next, `CN1CCC(c2nc(-c3c(F)cccc3Cl)c3ccccc3n2)CC1` [Example 74, 4-(2-Chloro-6-fluoro-phenyl)-2-(1-methyl-piperidin-4-yl)-quinazoline]: 22.9 nM.
As for `Fc1cccc(Cl)c1-c1nc(C2CCNCC2)nc2ccccc12` [Example 75, 4-(2-Chloro-6-fluoro-phenyl)-2-piperidin-4-yl-quinazoline], the affinity corresponds to a Ki of 5.9 nM.
Next, `Cc1ccccc1-c1nc(C2CCNCC2)nc2ccccc12` [Example 76, 2-Piperidin-4-yl-4-o-tolyl-quinazoline]: 44.7 nM; `Fc1ccccc1-c1nc(C2CCCNC2)nc2ccccc12` (centres unmarked) [Example 77, 4-(2-Fluoro-phenyl)-2-piperidin-3-yl-quinazoline]: 22.8 nM.
`Cc1ccccc1-c1nc(C2CCCNC2)nc2ccccc12` (centres unmarked) [Example 78, 2-Piperidin-3-yl-4-o-tolyl-quinazoline] gave a Ki of 19.8 nM.
Then `Fc1ccccc1-c1nc(C2(c3ccccc3)CCNCC2)nc2ccccc12` [Example 79, 4-(2-Fluoro-phenyl)-2-(4-phenyl-piperidin-4-yl)-quinazoline], with 63.4 nM.
Then `c1ccc(-c2nc(N3CC4CC3CN4)nc3ccccc23)cc1` (centres unmarked) [Example 80, 2-(2,5-Diaza-bicyclo[2.2.1]hept-2-yl)-4-phenyl-quinazoline], with 9.5 nM.
Next, `c1ccc(-c2nc(N3CC4CNCC4C3)nc3ccccc23)cc1` (centres unmarked) [Example 81, 2-(Hexahydro-pyrrolo[3,4-c]pyrrol-2-yl)-4-phenyl-quinazoline]: 61 nM.
